“Also recorded” adds a separate entry of the source.
Assays:
[1] = system: histamine ulcer; assay: Effect on the Histamine ulcer; format: in vivo, SD strain male rats; details: 100 mg/kg oral; for inhibition in vivo at 100 mg/kg: read-out: Inhibition rate to the development of the histamine ulcer
Protocol: According to the Okabe et al. method [[…] 26 (1) 89-93 (1975)], the inhibitory effects of the test compounds on the development of ulcer due to the administration of histamine were estimated using SD strain male rats weighing about 350 g as the test animals.
The methods for administration and estimation of the effect of the test compounds are carried out according to the procedure in pharmacological experiment 1.
A dose of the test compounds amounted to 100 mg/kg.
The histamine was administered intraperitoneally to the test animal in an amount of 200 mg/kg as the hydrochloride.
The effect was estimated 4 hours after the administration of the histamine.

[2] = system: cold and restraint stress ulcer; assay: Effect on the cold and restraint stress ulcer; format: in vivo, SD strain female rats; details: 200 mg/kg oral; for Inhibition rate to the development of the ulcer (in words): compared with control compound A (Gefarnate); for inhibition in vivo at 200 mg/kg: 2 h, read-out: Inhibition rate to the development of the cold and restraint stress ulcer
Protocol: Preventive effect of the test compounds on the development of the cold and restraint stress ulcer was estimated according to Levine's method [Proc. Soc. Exptl. Biol. Med., 124, 1221 (1967)], using SD strain female rats weighing about 170 g, and being 8-10 weeks old, as test animals.
All test compounds were suspended in 5% gum arabic solution and one drop of Tween 80, and the suspension was orally administered to rat. A dose amounted to 200 mg/kg, and the volume of the administrative dose was controlled to 0.5 ml/100 g B. W. As a blank test, 5% gum arabic solution was administered.
The administration of the test compounds and the blank test were carried out 30 minutes before adopting the cold and restraint stress.
The effect of the test compounds was estimated by finding the value (ulcer index) of the total length of the erosion observed in the glandular portion of the test animals two hours after the cold and restraint stress, and calculating the effect of the administration of said compounds as the inhibition rate of the development of the ulcer from the value. [formula]

[3] = system: indomethacin ulcer; assay: Effect on Indomethacin ulcer; format: in vivo, SD strain female rats; details: for inhibition in vivo at 100 mg/kg: 4 h, read-out: Inhibition rate on the development of indomethacin ulcer
Protocol: The inhibitory effects of the test compounds on the development of the ulcer due to the administration of indomethacin were estimated using SD strain female rats weighing about 200 g as the test animals.
The methods for administration and estimation of the effect of the test compounds are carried out according to the procedure in pharmacological experiment 2.
The dose of the test compound amounted to 100 mg/kg. The indomethacin was orally administered in the dose of 20 mg/kg. The effect was estimated four hours after the administration of indomethacin.

[4] = system: peptic ulcers; assay: Therapeutic effect on peptic ulcers (overall result of the pharmacological experiments); format: in vivo, SD strain rats; details: from the results of the above-described pharmacological experiments
[5] = system: subacute aspirin ulcer; assay: Effect on subacute aspirin ulcer; format: in vivo, SD strain male rats; details: for inhibition in vivo at 200 mg/kg: 144 h, read-out: Inhibition rate to the development of the subacute aspirin ulcer; for Inhibitory effect on subacute aspirin ulcer (in words): 200 mg/kg/day for five days
Protocol: Aspirin in amount of 200 mg/kg/day was orally administered to SD strain male rats (body weight of about 250 g, nine weeks old) after abstinence from the food for 24 hours. The rats were fed for one hour, after one hour from said administration, and again abstained from the food. The administration of aspirin was continued for five days in the same schedule as mentioned above. The effect was estimated on the sixth day.
All the test compounds were emulsified with 5% gum arabic solution and one drop of Tween 80. The emulsions were administered continuously for five days, together with aspirin to rat. The dose amounted to 200 mg/kg/day, and the volume of the dose was controlled to 0.5 ml/100 g B. W. The blank test was similarly effected as pharmacological experiment 1.
The effect of the test compound was estimated by finding the value (ulcer index) of the total lengths of erosions developed in the glandular portion of the test animal with respect to the test compounds group and the blank test group, respectively, and calculating from said value the effect of the administration of the test compounds as the inhibition rate.

[6] = histamine 200 mg/kg intraperitoneally, 4 hours after histamine, rat
[7] = 30 minutes before stress, ulcer index two hours after stress, rat
[8] = 200 mg/kg/day for five days together with aspirin 200 mg/kg/day oral, estimated on sixth day, rat
[9] = indomethacin 20 mg/kg oral, four hours after indomethacin, rat

Compound: 6,10,14-trimethyl-5,9,13-octadecatriene-2-on [subject compound A]
- Effect on the histamine ulcer of rat (in words) [1]: more inhibitory effect than that of the control compound
- Inhibition rate to the development of the histamine ulcer [1, 6]: 50.4%
- Inhibition rate to the development of the cold and restraint stress ulcer [2, 7]: 71.4%
- Inhibition rate to the development of the ulcer (in words) [2]: higher than that of the control compound A
- Inhibition rate on the development of indomethacin ulcer ([3]; 100 mg/kg, indomethacin 20 mg/kg oral, four hours after indomethacin, rat): 75.4%
- Therapeutic effect on the peptic ulcers (in words) [4]: high therapeutic effect on the peptic ulcers
- Inhibition rate to the development of the subacute aspirin ulcer [5, 8]: 56.7%

Compound: CC(C)=CCCC(C)=CCCC(C)=CCCC(=O)OCC=C(C)CCC=C(C)C [control compound A, reference compound]
- Effect on the histamine ulcer of rat (in words) [1]: no appreciable effect
- inhibition in vivo at 100 mg/kg [1, 6]: 15.4%
- inhibition in vivo at 200 mg/kg [2, 7]: 47.2%
- inhibition in vivo at 100 mg/kg [3, 9]: 45%
- inhibition in vivo at 200 mg/kg [5, 8]: 21%

Compound: CC(=O)CCC=C(C)CCC=C(C)CCC=C(C)CCC=C(C)C [subject compound B, 6,10,14,18-tetramethyl-5,9,13,17-nonadecatetraene-2-on]
- Effect on the histamine ulcer of rat (in words) [1]: more inhibitory effect than that of the control compound
- inhibition in vivo at 100 mg/kg [1, 6]: 53.8%
- Inhibition rate to the development of the ulcer (in words) [2]: higher than that of the control compound A; also recorded: particularly the most effective compound
- inhibition in vivo at 200 mg/kg [2, 7]: 75.7%
- Inhibitory effect on the development of the indomethacin ulcer (in words) ([3]; 100 mg/kg): Particularly high inhibitory effect
- inhibition in vivo at 100 mg/kg [3, 9]: 91.3%
- Therapeutic effect on the peptic ulcers (in words) [4]: high therapeutic effect on the peptic ulcers
- Inhibitory effect on subacute aspirin ulcer (in words) [5]: Inhibitory effect was shown
- inhibition in vivo at 200 mg/kg [5, 8]: 73.2%

Compound: CC(C)=CCCC(C)=CCCC(C)=CCCC(C)=CCCC(=O)C(C)C [subject compound C, 2,7,11,15,19-pentamethyl-6,10,14,18-eicosatetraene-3-on]
- inhibition in vivo at 100 mg/kg [1, 6]: 44.7%
- Inhibition rate to the development of the ulcer (in words) [2]: higher than that of the control compound A
- inhibition in vivo at 200 mg/kg [2, 7]: 67.1%
- Inhibitory effect on the development of the indomethacin ulcer (in words) ([3]; 100 mg/kg): Particularly high inhibitory effect
- inhibition in vivo at 100 mg/kg [3, 9]: 86.7%
- Therapeutic effect on the peptic ulcers (in words) [4]: high therapeutic effect on the peptic ulcers
- inhibition in vivo at 200 mg/kg [5, 8]: 50.9%

Compound: CC(=O)CCC=C(C)CCCC(C)CCCC(C)CCCC(C)C (stereo not shown) [subject compound D, 6,10,14,18-tetramethyl-5-nonadecaene-2-on]
- inhibition in vivo at 100 mg/kg [1, 6]: 35.2%
- Inhibition rate to the development of the ulcer (in words) [2]: higher than that of the control compound A
- inhibition in vivo at 200 mg/kg [2, 7]: 72%
- inhibition in vivo at 100 mg/kg [3, 9]: 75.5%
- Therapeutic effect on the peptic ulcers (in words) [4]: high therapeutic effect on the peptic ulcers
- Inhibitory effect on subacute aspirin ulcer (in words) [5]: Inhibitory effect was shown
- inhibition in vivo at 200 mg/kg [5, 8]: 61.8%

Compound: CC(=O)CCCC(C)CCCC(C)CCCC(C)CCCC(C)C (stereo not shown) [subject compound E, 6,10,14,18-tetramethyl-nonadecane-2-on]
- inhibition in vivo at 100 mg/kg [1, 6]: 22.4%
- Inhibition rate to the development of the ulcer (in words) [2]: higher than that of the control compound A
- inhibition in vivo at 200 mg/kg [2, 7]: 67.8%
- inhibition in vivo at 100 mg/kg [3, 9]: 71.1%
- Therapeutic effect on the peptic ulcers (in words) [4]: high therapeutic effect on the peptic ulcers
- inhibition in vivo at 200 mg/kg [5, 8]: 48.5%

Compound: CCCC(=O)CCC=C(C)CCC=C(C)CCC=C(C)CCC=C(C)C [subject compound F, 8,12,16,20-tetramethyl-7,11,15,19-heneicosatetraene-4-on]
- Effect on the histamine ulcer of rat (in words) [1]: more inhibitory effect than that of the control compound
- inhibition in vivo at 100 mg/kg [1, 6]: 49%
- Inhibition rate to the development of the ulcer (in words) [2]: higher than that of the control compound A
- inhibition in vivo at 200 mg/kg [2, 7]: 69.5%
- Inhibitory effect on the development of the indomethacin ulcer (in words) ([3]; 100 mg/kg): Particularly high inhibitory effect
- inhibition in vivo at 100 mg/kg [3, 9]: 88.5%
- Therapeutic effect on the peptic ulcers (in words) [4]: high therapeutic effect on the peptic ulcers
- inhibition in vivo at 200 mg/kg [5, 8]: 52.7%

Compound: CC(=O)C(CC=C(C)CCC=C(C)CCC=C(C)CCC=C(C)C)C(C)=O [subject compound G, 3-acetyl-6,10,14,18-tetramethyl-5,9,13,17-nonadecatetraene-2-on]
- inhibition in vivo at 100 mg/kg [1, 6]: 40.8%
- Inhibition rate to the development of the ulcer (in words) [2]: higher than that of the control compound A
- inhibition in vivo at 200 mg/kg [2, 7]: 70.5%
- inhibition in vivo at 100 mg/kg [3, 9]: 64.9%
- Therapeutic effect on the peptic ulcers (in words) [4]: high therapeutic effect on the peptic ulcers
- inhibition in vivo at 200 mg/kg [5, 8]: 64.5%
